Like-named read-outs stand apart in the source and are kept apart here.
Legend:
Format in all cases: cell-based
E. coli armA = assay: microbe, parasite or virus in culture; settings: Escherichia coli, E. coli armA
How it was run: (§1)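 Per CLSI, MICs by broth microdilution or agar dilution; strains other than streptococci and anaerobes were sub-cultured overnight at 35° C on blood agar, with a final broth inoculum of 5×10^5 CFU/mL.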

E. coli ΔTolC = assay: microbe, parasite or virus in culture; settings: Escherichia coli, E. coli ΔTolC
How it was run: as §1

S. aureus BAA 977 iErmA = assay: microbe, parasite or virus in culture; settings: Staphylococcus aureus
How it was run: as §1

S. aureus MP-549 msrA = assay: microbe, parasite or virus in culture; settings: Staphylococcus aureus, MP549MSRA
How it was run: as §1

[1] = test system: broad panel of different clinical isolates; assay: microbe, parasite or virus in culture
How it was run: as §1

E. coli LptD = assay: MIC (broth microdilution or agar dilution, CLSI); settings: Escherichia coli, read-out: MIC
How it was run: as §1

E. faecalis ATCC 29212 = assay: MIC (broth microdilution or agar dilution, CLSI); settings: Enterococcus faecalis, read-out: MIC
How it was run: as §1

K. oxytoca Clinical = assay: MIC (broth microdilution or agar dilution, CLSI)
How it was run: as §1

K. pneumoniae ATCC 10031 = assay: MIC (broth microdilution or agar dilution, CLSI); settings: Klebsiella pneumoniae, ATCC10031, K. pneumoniae ATCC 10031; read-out: MIC
How it was run: as §1

S. aureus ATCC 700699 = assay: MIC (broth microdilution or agar dilution, CLSI); settings: Staphylococcus aureus
How it was run: as §1

[2] = test system: S. aureus ATCC BAA-1707 (MRSA); assay: MIC (broth microdilution or agar dilution, CLSI)
How it was run: as §1

S. aureus hVISA = assay: MIC (broth microdilution or agar dilution, CLSI)
How it was run: as §1

S. pneumoniae ATCC 49619 = assay: MIC (broth microdilution or agar dilution, CLSI); settings: Streptococcus pneumoniae, read-out: MIC
How it was run: as §1

S. pneumoniae ATCC 6303 = assay: MIC (broth microdilution or agar dilution, CLSI)
How it was run: as §1

[3] = test system: S. pneumoniae MMX 3028 cErmB; assay: MIC (broth microdilution or agar dilution, CLSI); settings: Streptococcus pneumoniae, MMX3028CERMB, S. pneumoniae MMX 3028 cErmB
How it was run: as §1

[4] = test system: S. pneumoniae MMX 3031 cMefA; assay: MIC (broth microdilution or agar dilution, CLSI); settings: Streptococcus pneumoniae, MMX3031CMEFA, read-out: MIC
How it was run: as §1

S. pyogenes ATCC 19615 = assay: MIC (broth microdilution or agar dilution, CLSI); settings: Streptococcus pyogenes, read-out: MIC
How it was run: as §1

[5] = test system: S. pyogenes MMX 946; cErmB; assay: MIC (broth microdilution or agar dilution, CLSI); settings: Streptococcus pyogenes, S. pyogenes MMX 946, cErmB
How it was run: as §1

Measured: MIC

CCC[C@@H]1C[C@@H](C(=O)N[C@@H]([C@H]2O[C@H](SC)[C@H](O)[C@@H](O)[C@H]2O)[C@H](C)Cl)N(C)C1 [Clindamycin, clindamycin, reference compound]
4 µg/mL: E. coli ΔTolC | E. coli LptD; E. coli HAV#040, LptD
32 µg/mL: [1]; Acinetobacter baumannii, A. baumannii HAV#663, Clinical
0.5 µg/mL: [1]; Neisseria gonorrhoeae, N. gonorrhoeae HAV#702, Clinical
>128 µg/mL: K. oxytoca Clinical; K. oxytoca HAV#450, Clinical | S. aureus hVISA; S. aureus HAV#204, hVISA
0.06 µg/mL: [1]; Staphylococcus aureus, S. aureus HAV#051, mecA, norA, spcl, ermA, aad1, aac6′-aph2″ | [1]; Staphylococcus aureus, S. aureus HAV#052, mecA, norA, fosB, blaZ | [1]; Staphylococcus aureus, S. aureus HAV#053 mecA, norA, fosB | [1]; Staphylococcus aureus, S. aureus HAV#214, Clinical | S. pneumoniae ATCC 49619; ATCC49619, S. pneumoniae HAV#003, ATCC 49619 | S. pneumoniae ATCC 6303; S. pneumoniae HAV#351, ATCC 6303 | S. pneumoniae ATCC 6303; Streptococcus pneumoniae, ATCC6303, S. pneumoniae ATCC 6303, read-out: MIC | [4]; S. pneumoniae MMX 3031 cMefA | S. pyogenes ATCC 19615; ATCC19615, S. pyogenes HAV#004, ATCC 19615
2 µg/mL: [1]; Neisseria gonorrhoeae, N. gonorrhoeae HAV#701, Clinical | [1]; Staphylococcus haemolyticus, S. haemolyticus 5052, Line R & Methicillin R | [1]; Staphylococcus haemolyticus, S. haemolyticus HAV#252, Line R & Methicillin R | E. coli LptD; E. coli LptD
< 0.06 µg/mL: [4]; S. pneumoniae HAV#034, MMX 3031, cMefA
0.12 µg/mL: S. aureus BAA 977 iErmA; BAA977 | S. aureus MP-549 msrA; S. aureus MP-549 msrA
> 128 µg/mL: E. coli armA | S. aureus BAA 977 iErmA; BAA-977 / MRSA, 24 h | [1]; Acinetobacter baumannii, A. baumannii HAV#660, Clinical | [1]; Enterococcus faecalis, VRE, E. faecalis HAV#251, Clinical VRE | [1]; Enterococcus faecium, VRE, E. faecium HAV#318, VanA | [1]; Enterococcus faecium, VRE, E. faecium HAV#320, Clinical | [1]; Escherichia coli, E. coli HAV#501, Clinical | [1]; Escherichia coli, E. coli HAV#512, Clinical | [1]; Escherichia coli, E. coli HAV#513, Clinical | [1]; Klebsiella pneumoniae, K. pneumoniae HAV#402, FQ-R | [1]; Klebsiella pneumoniae, K. pneumoniae HAV#405, Clinical | [1]; Klebsiella pneumoniae, K. pneumoniae HAV#406, Clinical | [1]; Klebsiella pneumoniae, K. pneumoniae HAV#407, Clinical | [1]; Klebsiella pneumoniae, K. pneumoniae HAV#408, Clinical | [1]; Klebsiella pneumoniae, K. pneumoniae HAV#409, ESBL-producing | [1]; Staphylococcus aureus, MRSA, S. aureus HAV#220, Line R | [1]; Staphylococcus aureus, MSSA, S. aureus HAV#219, Line R | [1]; Staphylococcus aureus, S. aureus HAV#217, cfr | [1]; Staphylococcus epidermidis, S. epidermidis HAV# 275 Clinical, cfr | [1]; Staphylococcus epidermidis, S. epidermidis HAV# 276, cfr | [1]; Staphylococcus epidermidis, S. epidermidis HAV#277, Line R | [1]; Staphylococcus epidermidis, S. epidermidis HAV#278 Line R | K. oxytoca Clinical; Klebsiella oxytoca | S. aureus ATCC 700699; ATCC700699 | S. aureus ATCC 700699; ATCC 700699 / VISA | S. aureus hVISA; Staphylococcus aureus | [3] | [5]
64 µg/mL: [1]; Acinetobacter baumannii, A. baumannii HAV#653, Clinical | [1]; Acinetobacter baumannii, A. baumannii HAV#654, Clinical | [1]; Acinetobacter baumannii, A. baumannii HAV#658, Clinical | [1]; Acinetobacter baumannii, A. baumannii HAV#661, Clinical | [1]; Acinetobacter baumannii, A. baumannii HAV#662, Clinical | [1]; Escherichia coli, E. coli HAV#503, Clinical
0.125 µg/mL: S. aureus BAA 977 iErmA; BAA-977 / MRSA | S. aureus MP-549 msrA; S. aureus HAV#032, MP-549, MSR(A) | [1]; Staphylococcus aureus, S. aureus HAV#212, Clinical | [1]; Staphylococcus aureus, S. aureus HAV#213, Clinical | [1]; Staphylococcus aureus, S. aureus HAV#215, Clinical | [2]; S. aureus HAV#016, ATCC BAA-1707, MRSA | [2]; Staphylococcus aureus
≤ 0.06 µg/mL: S. pneumoniae ATCC 49619; ATCC49619, S. pneumoniae ATCC 49619 | S. pyogenes ATCC 19615; ATCC19615, S. pyogenes ATCC 19615
16 µg/mL: [1]; Enterococcus faecalis, E. faecalis HAV#602, Clincal | E. faecalis ATCC 29212; ATCC29212, E. faecalis ATCC 29212 | E. faecalis ATCC 29212; ATCC29212, E. faecalis HAV#005, ATCC 29212 | K. pneumoniae ATCC 10031
8 µg/mL: [1]; Enterococcus faecalis, E. faecalis HAV#612, Line R | [1]; Enterococcus faecalis, S. faecalis 5074, Line R | [1]; Enterococcus faecium, E. faecium HAV#317, Clinical | [1]; Enterococcus faecium, E. faecium HAV#327, Clinical | [1]; Enterococcus faecium, E. faecium HAV#604, Clinical | [1]; Enterococcus faecium, VRE, E. faecium HAV#326, Clinical | [1]; Haemophilus influenzae, ATCC9007, H. influenzae HAV#376, ATCC-9007
> 64 µg/mL: [1]; Staphylococcus aureus, S. aureus HAV#211, Clinical | [1]; Staphylococcus aureus, VISA, S. aureus HAV#203, Clinical (VISA) | [1]; Streptococcus pneumoniae, ATCC700673, S. pneumoniae HAV#352, ATCC 700673, MDR | [1]; Streptococcus pneumoniae, S. pneumoniae HAV#356, Clinical | [3]; read-out: MIC | [5]; read-out: MIC
0.25 µg/mL: [1]; Staphylococcus epidermidis, S. epidermidis HAV#279, Line R | [1]; Streptococcus pneumoniae, ATCCBAA255, S. pneumoniae HAV#354, ATCC-BAA-255 | [1]; Streptococcus pneumoniae, ATCCBAA334, S. pneumoniae HAV#353, ATCC-BAA-334 | [1]; Streptococcus pneumoniae, S. pneumoniae HAV#358, Clinical
128 µg/mL: [1]; Acinetobacter baumannii, A. baumannii HAV#651, Clinical | [1]; Acinetobacter baumannii, A. baumannii HAV#652 Clinical | [1]; Acinetobacter baumannii, A. baumannii HAV#655, Clinical | [1]; Acinetobacter baumannii, A. baumannii HAV#656, Clinical | [1]; Acinetobacter baumannii, A. baumannii HAV#657, Clinical | [1]; Acinetobacter baumannii, A. baumannii HAV#659, Clinical | [1]; Acinetobacter baumannii, A. baumannii HAV#664, Carbapenem R | [1]; Enterococcus faecalis, E. faecalis HAV#611, Line R & Vanco R | [1]; Enterococcus faecalis, S. faecalis 5060, Line R & Vanco R | [1]; Escherichia coli, E. coli HAV#511, Clinical | [1]; Escherichia coli, E. coli HAV#514, Clinical | [1]; Escherichia coli, E. coli HAV#516, ESBL-producing | [1]; Klebsiella pneumoniae, K. pneumoniae HAV#404, Clinical | [1]; Staphylococcus aureus, S. aureus HAV#216, Clinical, cfr

From US20230203081A1, “LINCOSAMIDE ANTIBIOTICS AND USES THEREOF” (President and Fellows of Harvard College, priority 2020, published 2023)
